The test system of the experiment is p38 MAPK/MAPKAPK2/TSC2/mTORC1/S6K1 cascade. Nature of the experiment: Western blots of eNMDAR-triggered signaling. In kind it is cell-based. The note with it: compared with Memantine. The source says:
This experiment was replicated 4 times with similar results and quantified in FIG. 20C.
Background: A western blot detects proteins with antibodies after separation by electrophoresis.

We go through one compound from US11529319B2, “Methods and compositions for treating neurological conditions” (priority 2017, dated 2022).

In the case of `CCC12CC3(N)CC(CC)(C1)CC(O[N+](=O)[O-])(C3)C2` [NitroSynapsin], the “eNMDAR-triggered signaling that inactivates TSC2 (p38 MAPK-TSC-Rheb-mTORC1-S6K1 pathway)” value was “correction of activity”. In addition, the “eNMDAR-triggered signaling that inactivates TSC2 (p38 MAPK-TSC-Rheb-mTORC1-S6K1 pathway)” value (listed as NitroMemantine) is “to a greater degree than Memantine”.
